Values after ≈ are worked out from the molar mass of the structure shown.
Experiments:
Type in all cases: functional
Aspergillus niger [1] = assay: Antifungal activity against Aspergillus niger at 50 ug/ml after 72 hrs by agar well diffusion method; settings: read-out: DIZ
Fusarium oxysporum [2] = assay: Antifungal activity against Fusarium oxysporum at 500 ug/ml after 72 hrs by agar well diffusion method; settings: read-out: DIZ
Fusarium oxysporum [3] = assay: Antifungal activity against Fusarium oxysporum at 300 ug/ml after 72 hrs by agar well diffusion method; settings: read-out: DIZ
Fusarium oxysporum [4] = assay: Antifungal activity against Fusarium oxysporum at 200 ug/ml after 72 hrs by agar well diffusion method; settings: read-out: DIZ
Fusarium oxysporum [5] = assay: Antifungal activity against Fusarium oxysporum at 100 ug/ml after 72 hrs by agar well diffusion method; settings: read-out: DIZ
Fusarium oxysporum [6] = assay: Antifungal activity against Fusarium oxysporum at 50 ug/ml after 72 hrs by agar well diffusion method; settings: read-out: DIZ
Rhizoctonia solani [7] = assay: Antifungal activity against Rhizoctonia solani at 500 ug/ml after 72 hrs by agar well diffusion method; settings: read-out: DIZ
Rhizoctonia solani [8] = assay: Antifungal activity against Rhizoctonia solani at 300 ug/ml after 72 hrs by agar well diffusion method; settings: read-out: DIZ
Rhizoctonia solani [9] = assay: Antifungal activity against Rhizoctonia solani at 200 ug/ml after 72 hrs by agar well diffusion method; settings: read-out: DIZ
Rhizoctonia solani [10] = assay: Antifungal activity against Rhizoctonia solani at 100 ug/ml after 72 hrs by agar well diffusion method; settings: read-out: DIZ
Rhizoctonia solani [11] = assay: Antifungal activity against Rhizoctonia solani at 50 ug/ml after 72 hrs by agar well diffusion method; settings: read-out: DIZ
Bacillus subtilis [12] = assay: Antibacterial activity against Bacillus subtilis at 500 ug/ml after 24 hrs by agar well diffusion method; settings: read-out: DIZ
Bacillus subtilis [13] = assay: Antibacterial activity against Bacillus subtilis at 300 ug/ml after 24 hrs by agar well diffusion method; settings: read-out: DIZ
Bacillus subtilis [14] = assay: Antibacterial activity against Bacillus subtilis at 200 ug/ml after 24 hrs by agar well diffusion method; settings: read-out: DIZ
Bacillus subtilis [15] = assay: Antibacterial activity against Bacillus subtilis at 100 ug/ml after 24 hrs by agar well diffusion method; settings: read-out: DIZ
Bacillus subtilis [16] = assay: Antibacterial activity against Bacillus subtilis at 50 ug/ml after 24 hrs by agar well diffusion method; settings: read-out: DIZ
Staphylococcus aureus [17] = assay: Antibacterial activity against Staphylococcus aureus ATCC 6538 at 500 ug/ml after 24 hrs by agar well diffusion method; settings: ATCC 6538, 24 h, read-out: DIZ
Staphylococcus aureus [18] = assay: Antibacterial activity against Staphylococcus aureus ATCC 6538 at 300 ug/ml after 24 hrs by agar well diffusion method; settings: ATCC 6538, 24 h, read-out: DIZ
Staphylococcus aureus [19] = assay: Antibacterial activity against Staphylococcus aureus ATCC 6538 at 200 ug/ml after 24 hrs by agar well diffusion method; settings: ATCC 6538, 24 h, read-out: DIZ
Staphylococcus aureus [20] = assay: Antibacterial activity against Staphylococcus aureus ATCC 6538 at 100 ug/ml after 24 hrs by agar well diffusion method; settings: ATCC 6538, 24 h, read-out: DIZ
Escherichia coli [21] = assay: Antibacterial activity against Escherichia coli ATCC 8739 at 300 ug/ml after 24 hrs by agar well diffusion method; settings: ATCC 8739, 24 h, read-out: DIZ
Escherichia coli [22] = assay: Antibacterial activity against Escherichia coli ATCC 8739 at 200 ug/ml after 24 hrs by agar well diffusion method; settings: ATCC 8739, 24 h, read-out: DIZ
Escherichia coli [23] = assay: Antibacterial activity against Escherichia coli ATCC 8739 at 100 ug/ml after 24 hrs by agar well diffusion method; settings: ATCC 8739, 24 h, read-out: DIZ
Escherichia coli [24] = assay: Antibacterial activity against Escherichia coli ATCC 8739 at 50 ug/ml after 24 hrs by agar well diffusion method; settings: ATCC 8739, 24 h, read-out: DIZ
Klebsiella pneumoniae [25] = assay: Antibacterial activity against Klebsiella pneumoniae at 500 ug/ml after 24 hrs by agar well diffusion method; settings: read-out: DIZ
Klebsiella pneumoniae [26] = assay: Antibacterial activity against Klebsiella pneumoniae at 300 ug/ml after 24 hrs by agar well diffusion method; settings: read-out: DIZ
Klebsiella pneumoniae [27] = assay: Antibacterial activity against Klebsiella pneumoniae at 200 ug/ml after 24 hrs by agar well diffusion method; settings: read-out: DIZ
Klebsiella pneumoniae [28] = assay: Antibacterial activity against Klebsiella pneumoniae at 50 ug/ml after 24 hrs by agar well diffusion method; settings: read-out: DIZ
Escherichia coli [29] = assay: Antibacterial activity against Escherichia coli ATCC 8739 at 500 ug/ml after 24 hrs by agar well diffusion method; settings: ATCC 8739, 24 h, read-out: DIZ
Klebsiella pneumoniae [30] = assay: Antibacterial activity against Klebsiella pneumoniae at 100 ug/ml after 24 hrs by agar well diffusion method; settings: read-out: DIZ
Staphylococcus aureus [31] = assay: Antibacterial activity against Staphylococcus aureus ATCC 6538 at 50 ug/ml after 24 hrs by agar well diffusion method; settings: ATCC 6538, 24 h, read-out: DIZ
Aspergillus flavus [32] = assay: Antifungal activity against Aspergillus flavus at 50 ug/ml after 72 hrs by agar well diffusion method; settings: read-out: DIZ
Aspergillus flavus [33] = assay: Antifungal activity against Aspergillus flavus at 100 ug/ml after 72 hrs by agar well diffusion method; settings: read-out: DIZ
Aspergillus flavus [34] = assay: Antifungal activity against Aspergillus flavus after 72 hrs by agar well diffusion method
Aspergillus niger [35] = assay: Antifungal activity against Aspergillus niger after 72 hrs by agar well diffusion method
Fusarium oxysporum [36] = assay: Antifungal activity against Fusarium oxysporum after 72 hrs by agar well diffusion method
Rhizoctonia solani [37] = assay: Antifungal activity against Rhizoctonia solani after 72 hrs by agar well diffusion method
Bacillus subtilis [38] = assay: Antibacterial activity against Bacillus subtilis after 24 hrs by agar well diffusion method
Staphylococcus aureus [39] = assay: Antibacterial activity against Staphylococcus aureus ATCC 6538 after 24 hrs by agar well diffusion method; settings: ATCC 6538, 24 h
Escherichia coli [40] = assay: Antibacterial activity against Escherichia coli ATCC 8739 after 24 hrs by agar well diffusion method; settings: ATCC 8739, 24 h
Klebsiella pneumoniae [41] = assay: Antibacterial activity against Klebsiella pneumoniae after 24 hrs by agar well diffusion method
Aspergillus flavus [42] = assay: Antifungal activity against Aspergillus flavus at 500 ug/ml after 72 hrs by agar well diffusion method; settings: read-out: DIZ
Aspergillus flavus [43] = assay: Antifungal activity against Aspergillus flavus at 300 ug/ml after 72 hrs by agar well diffusion method; settings: read-out: DIZ
Aspergillus flavus [44] = assay: Antifungal activity against Aspergillus flavus at 200 ug/ml after 72 hrs by agar well diffusion method; settings: read-out: DIZ
Aspergillus niger [45] = assay: Antifungal activity against Aspergillus niger at 500 ug/ml after 72 hrs by agar well diffusion method; settings: read-out: DIZ
Aspergillus niger [46] = assay: Antifungal activity against Aspergillus niger at 300 ug/ml after 72 hrs by agar well diffusion method; settings: read-out: DIZ
Aspergillus niger [47] = assay: Antifungal activity against Aspergillus niger at 200 ug/ml after 72 hrs by agar well diffusion method; settings: read-out: DIZ
Aspergillus niger [48] = assay: Antifungal activity against Aspergillus niger at 100 ug/ml after 72 hrs by agar well diffusion method; settings: read-out: DIZ

Question: Which zone of inhibition at 50 µg/mL (Aspergillus niger [1]) does the source give for `CC1(C)OC(=O)C(=Cc2c[nH]c3ccc([N+](=O)[O-])cc23)C(=O)O1` here?
Answer: 7 mm

Question: And the zone of inhibition at 500 µg/mL (Fusarium oxysporum [2])?
Answer: 31 mm

Question: And the zone of inhibition at 300 µg/mL (Fusarium oxysporum [3])?
Answer: 21 mm

Question: What about the zone of inhibition at 200 µg/mL (Fusarium oxysporum [4]) of the same molecule?
Answer: 17 mm

Question: And the zone of inhibition at 100 µg/mL (Fusarium oxysporum [5])?
Answer: 14 mm

Question: What about the zone of inhibition at 50 µg/mL (Fusarium oxysporum [6]) of the same molecule?
Answer: 10 mm

Question: What about the zone of inhibition at 500 µg/mL (Rhizoctonia solani [7]) of the same molecule?
Answer: 32 mm

Question: And the zone of inhibition at 300 µg/mL (Rhizoctonia solani [8])?
Answer: 24 mm

Question: And the zone of inhibition at 200 µg/mL (Rhizoctonia solani [9])?
Answer: 19 mm

Question: And the zone of inhibition at 100 µg/mL (Rhizoctonia solani [10])?
Answer: 15 mm

Question: And the zone of inhibition at 50 µg/mL (Rhizoctonia solani [11])?
Answer: 10 mm

Question: And the zone of inhibition at 500 µg/mL (Bacillus subtilis [12])?
Answer: 24 mm

Question: What about the zone of inhibition at 300 µg/mL (Bacillus subtilis [13]) of the same molecule?
Answer: 16 mm

Question: What about the zone of inhibition at 200 µg/mL (Bacillus subtilis [14]) of the same molecule?
Answer: 13 mm

Question: What about the zone of inhibition at 100 µg/mL (Bacillus subtilis [15]) of the same molecule?
Answer: 11 mm

Question: And the zone of inhibition at 50 µg/mL (Bacillus subtilis [16])?
Answer: 6 mm

Question: What about the zone of inhibition at 500 µg/mL (Staphylococcus aureus [17]) of the same molecule?
Answer: 28 mm

Question: What about the zone of inhibition at 300 µg/mL (Staphylococcus aureus [18]) of the same molecule?
Answer: 18 mm

Question: And the zone of inhibition at 200 µg/mL (Staphylococcus aureus [19])?
Answer: 15 mm

Question: And the zone of inhibition at 100 µg/mL (Staphylococcus aureus [20])?
Answer: 12 mm

Question: What about the zone of inhibition at 300 µg/mL (Escherichia coli [21]) of the same molecule?
Answer: 22 mm

Question: And the zone of inhibition at 200 µg/mL (Escherichia coli [22])?
Answer: 17 mm

Question: And the zone of inhibition at 100 µg/mL (Escherichia coli [23])?
Answer: 15 mm

Question: And the zone of inhibition at 50 µg/mL (Escherichia coli [24])?
Answer: 10 mm

Question: And the zone of inhibition at 500 µg/mL (Klebsiella pneumoniae [25])?
Answer: 34 mm

Question: And the zone of inhibition at 300 µg/mL (Klebsiella pneumoniae [26])?
Answer: 25 mm

Question: What about the zone of inhibition at 200 µg/mL (Klebsiella pneumoniae [27]) of the same molecule?
Answer: 20 mm

Question: And the zone of inhibition at 50 µg/mL (Klebsiella pneumoniae [28])?
Answer: 11 mm

Question: And the zone of inhibition at 500 µg/mL (Escherichia coli [29])?
Answer: 33 mm

Question: And the zone of inhibition at 100 µg/mL (Klebsiella pneumoniae [30])?
Answer: 16 mm

Question: What about the zone of inhibition at 50 µg/mL (Staphylococcus aureus [31]) of the same molecule?
Answer: 8 mm

Question: What about the zone of inhibition at 50 µg/mL (Aspergillus flavus [32]) of the same molecule?
Answer: 5 mm

Question: And the zone of inhibition at 100 µg/mL (Aspergillus flavus [33])?
Answer: 10 mm

Question: And the MIC (Aspergillus flavus [34])?
Answer: 35 µg/mL (≈ 111 µM)

Question: And the MIC (Aspergillus niger [35])?
Answer: 30 µg/mL (≈ 94.9 µM)

Question: What about the MIC (Fusarium oxysporum [36]) of the same molecule?
Answer: 25 µg/mL (≈ 79 µM)

Question: What about the MIC (Rhizoctonia solani [37]) of the same molecule?
Answer: 25 µg/mL (≈ 79 µM)

Question: What about the MIC (Bacillus subtilis [38]) of the same molecule?
Answer: 20 µg/mL (≈ 63.2 µM)

Question: And the MIC (Staphylococcus aureus [39])?
Answer: 20 µg/mL (≈ 63.2 µM)

Question: What about the MIC (Escherichia coli [40]) of the same molecule?
Answer: 10 µg/mL (≈ 31.6 µM)

Question: What about the MIC (Klebsiella pneumoniae [41]) of the same molecule?
Answer: 10 µg/mL (≈ 31.6 µM)

Question: And the zone of inhibition at 500 µg/mL (Aspergillus flavus [42])?
Answer: 24 mm

Question: What about the zone of inhibition at 300 µg/mL (Aspergillus flavus [43]) of the same molecule?
Answer: 17 mm

Question: What about the zone of inhibition at 200 µg/mL (Aspergillus flavus [44]) of the same molecule?
Answer: 13 mm

Question: And the zone of inhibition at 500 µg/mL (Aspergillus niger [45])?
Answer: 26 mm

Question: And the zone of inhibition at 300 µg/mL (Aspergillus niger [46])?
Answer: 19 mm

Question: What about the zone of inhibition at 200 µg/mL (Aspergillus niger [47]) of the same molecule?
Answer: 15 mm

Question: What about the zone of inhibition at 100 µg/mL (Aspergillus niger [48]) of the same molecule?
Answer: 11 mm

Reference: ChEMBL document CHEMBL2429768, “Eco-friendly synthesis and antimicrobial activities of substituted-5-(1H-indol-3-yl)methylene)-2,2-dimethyl-1,3-dioxane-4,6-dione derivatives” (2013)
